From patent US7691392B2 (Kosan Biosciences Incorporated, priority 2005, dated 2010)

Columns and labels:
[1] = Cellular assays, relative potency of 17-AAG and 17-AG; format: cell-based; conditions: 17-AAG versus 17-AG
[2] = Plasma pharmacokinetics of 17-AAG and 17-AG in the open-label dose escalating trial in MM patients
Protocol: The total number of PK samples collected was approximately 110 mL of whole blood (7-8 tablespoons). If a patient experienced a potentially drug-related SAE, additional PK samples were collected. Blood was drawn from the contralateral arm to the infusion site using an indwelling catheter to avoid multiple needle sticks. […] The blood tube was inverted several times, and the tube placed in wet ice immediately pending separation of the plasma. If a catheter was used for blood collection, the fluid in the catheter was completely withdrawn prior to each sample collection and discarded. Plasma samples were kept on wet ice during collection and centrifugation. Plasma samples were split into two cryovials prior to freezing at −70° C.
The PK analysis was performed as follows. […] PK parameters were calculated on plasma concentration time data by non-compartmental analysis using Kinetica version 4.3 software (Innaphase, Champs sur Marne, France). AUC was calculated by the mixed log-linear rule: the linear rule was applied to the range where concentration was ascending and the log-linear rule was applied to the range where the concentration was descending. AUClast is the area from t=0 to tlast, the last sampling time. AUCextra is the extrapolated area from AUClast to infinity and AUCtotal=AUClast+AUCextra and is also named AUC0-∞ area under the concentration-time curve from time zero to infinity. The terminal rate constant λz was calculated on at least three points on the elimination curve with values greater than the lower limit of quantitation. […] Table 5 lists the areas, Cmax, and half-life for the metabolite 17-AG (mean±one standard deviation). […] There was no dose dependency for half-life, clearance or distributive volumes for these dose administrations.

[3] = patients treated at 56 mg/m^2 17-AAG; cited from earlier work

## CO[C@H]1/C=C\C=C(/C)C(=O)NC2=CC(=O)C(N)=C(C[C@@H](C)C[C@H](OC)[C@H](O)[C@@H](C)/C=C(\C)[C@@H]1OC(N)=O)C2=O [17-AG, 17-aminogeldanamycin]
[1]
  relative potency in cellular assays: equipotent
[2]; 220 mg/m^2 cohort
  time post infusion from which plasma level of 17-AG exceeded the parent drug: approximately 7 hours
[2]; 17 patients, first vs fourth infusion
  change of AUCtotal between Day 1 and Day 11: no pattern of increase or decrease
[2]; 150-340 mg/m^2 17-AAG
  dose proportionality of Cmax: did not increased in a dose proportional manner
[2]; 150 and 275 mg/m^2 cohorts
  time post infusion from which plasma level of 17-AG exceeded the parent drug: approximately 3 hours
[2]; human, plasma, intravenous
  half-life: 4.6 to 5.4 h
[3]
  Vz: 203 L/m^2
  clearance: 30.8 L/h/m^2
